pEC50: −log10 of the molar value. Like-named read-outs stand apart in the source and are kept apart here.
What was measured:
human CB2 receptors = biological target: T1, human CB2 receptors (Homo sapiens, UniProt P34972); test: functional cAMP assay, human CB2; assay type: cell-based
T1 construct: expressed in transfected cells; host or cells: CHO cells
How it was run: (§1)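 Agonist EC50 values came from cAMP levels in CHO cells carrying human CB1 or CB2, after 30 min of compound treatment at 30 °C in the presence of 1 mM IBMX. Detection used a time-resolved FRET cAMP kit read against a cAMP standard curve.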

human CB1 receptors = biological target: T2, human CB1 receptors (Homo sapiens, UniProt P21554); test: functional cAMP assay, human CB1; assay type: cell-based
T2 construct: expressed in transfected cells; host or cells: CHO cells
T2 sequence (P21554 whole entry): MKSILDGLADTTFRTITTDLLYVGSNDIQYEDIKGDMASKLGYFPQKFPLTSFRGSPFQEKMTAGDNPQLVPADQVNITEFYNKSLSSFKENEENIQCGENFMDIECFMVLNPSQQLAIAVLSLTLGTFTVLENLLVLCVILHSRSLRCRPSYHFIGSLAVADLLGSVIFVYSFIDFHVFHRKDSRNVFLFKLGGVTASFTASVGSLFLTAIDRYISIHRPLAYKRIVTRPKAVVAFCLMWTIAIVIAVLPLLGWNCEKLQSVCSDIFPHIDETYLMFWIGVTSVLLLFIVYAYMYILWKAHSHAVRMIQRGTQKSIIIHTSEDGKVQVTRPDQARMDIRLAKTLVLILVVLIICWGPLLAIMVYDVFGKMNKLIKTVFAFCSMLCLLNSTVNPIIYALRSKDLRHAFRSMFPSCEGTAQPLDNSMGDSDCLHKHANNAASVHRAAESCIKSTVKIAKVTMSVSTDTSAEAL
How it was run: as §1

[1] = CHO cells expressing human CB2, cAMP, read-out: human CB2 EC50
[2] = CHO cells expressing human CB1, cAMP, read-out: human CB1 EC50

T1 sequence (P34972 whole entry): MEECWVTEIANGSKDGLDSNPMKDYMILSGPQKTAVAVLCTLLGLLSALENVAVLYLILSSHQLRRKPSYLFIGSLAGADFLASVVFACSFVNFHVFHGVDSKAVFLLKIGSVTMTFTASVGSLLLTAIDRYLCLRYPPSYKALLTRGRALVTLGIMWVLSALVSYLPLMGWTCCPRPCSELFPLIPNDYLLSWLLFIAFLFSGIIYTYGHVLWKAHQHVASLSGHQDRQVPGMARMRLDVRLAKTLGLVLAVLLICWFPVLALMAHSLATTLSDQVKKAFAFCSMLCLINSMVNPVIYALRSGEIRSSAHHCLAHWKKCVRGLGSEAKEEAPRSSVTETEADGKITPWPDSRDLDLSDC

SMILES	pEC50 (human CB2 receptors; [1])	pEC50 (human CB1 receptors; [2])	pEC50 (human CB1 receptors)	pEC50 (human CB2 receptors)
CC(C)(C)c1nc(N2CCOCC2CO)c2nnn(Cc3ccccc3Cl)c2n1 (stereo not drawn) [Example 48, {4-[5-tert-Butyl-3-(2-chloro-benzyl)-3H-[1,2,3]triazolo[4,5-d]pyrimidin-7-yl]-morpholin-3-yl}-methanol]	8.08	< 5.00		
CC(C)(C)c1nc(N2CCSCC2)c2nnn(Cc3ccccc3Cl)c2n1 [Example 20, 5-tert-Butyl-3-(2-chloro-benzyl)-7-thiomorpholin-4-yl-3H-[1,2,3]triazolo[4,5-d]pyrimidine]	8.77	6.46		
CC(C)(C)c1nc(N2CC[C@H](O)C2)c2nnn(Cc3ccccc3C(F)(F)F)c2n1 [Example 142, (S)-1-[5-tert-Butyl-3-(2-trifluoromethyl-benzyl)-3H-[1,2,3]triazolo[4,5-d]pyrimidin-7-yl]-pyrrolidin-3-ol]	9.70	< 5.00		
CC(C)(C)c1nc(N2CCC(F)(F)C2)c2nnn(Cc3ccc(Cl)cc3)c2n1 [Example 66, 5-tert-Butyl-3-(4-chloro-benzyl)-7-(3,3-difluoro-pyrrolidin-1-yl)-3H-[1,2,3]triazolo[4,5-d]pyrimidine]	8.70	< 5.00		
CC(C)(C)c1nc(N2CCC(F)(F)C2)c2nnn(Cc3ccccc3C(F)(F)F)c2n1 [Example 80, 5-tert-Butyl-7-(3,3-difluoro-pyrrolidin-1-yl)-3-(2-trifluoromethyl-benzyl)-3H-[1,2,3]triazolo[4,5-d]pyrimidine]	9.52	7.16		
Cn1nnnc1Cn1nnc2c(N3CC[C@H](O)[C@@H]3CO)nc(C(C)(C)C)nc21 [Example 165, (2S,3S)-1-[5-tert-Butyl-3-(1-methyl-1H-tetrazol-5-ylmethyl)-3H-[1,2,3]triazolo[4,5-d]pyrimidin-7-yl]-2-hydroxymethyl-pyrrolidin-3-ol]	7.27	< 5.00		
CC(C)(C)c1nc(N2CCC(F)(F)C2)c2nnn(CC(F)(F)F)c2n1 [Example 76, 5-tert-Butyl-7-(3,3-difluoro-pyrrolidin-1-yl)-3-(2,2,2-trifluoro-ethyl)-3H-[1,2,3]triazolo[4,5-d]pyrimidine]	8.64	< 5.00		
CC(C)Oc1nc(C(C)(C)C)nc2c1nnn2Cc1ccccc1Cl [Example 209, 5-tert-Butyl-3-(2-chloro-benzyl)-7-isopropoxy-3H-[1,2,3]triazolo[4,5-d]pyrimidine]	7.80	< 5.00		
COC[C@@H]1CCCN1c1nc(C(C)(C)C)nc2c1nnn2Cc1ccccc1Cl [Example 45, 5-tert-Butyl-3-(2-chloro-benzyl)-7-((S)-2-methoxymethyl-pyrrolidin-1-yl)-3H-[1,2,3]triazolo[4,5-d]pyrimidine]	7.28	< 5.00		
CC(C)(C)c1nc(N2CCC(F)(F)C2)c2nnn(Cc3ncccc3Cl)c2n1 [Example 98, 5-tert-Butyl-3-(3-chloro-pyridin-2-ylmethyl)-7-(3,3-difluoro-pyrrolidin-1-yl)-3H-[1,2,3]triazolo[4,5-d]pyrimidine]	10.00	7.01		
CC(C)(C)c1nc(N2CC(O)C2)c2nnn(Cc3ccccc3Cl)c2n1 [Example 13]	7.91	< 5.00		
CC(C)(C)c1nc(N2CCC(F)(F)C2)c2nnn(Cc3ccncc3Cl)c2n1 [Example 129, 5-tert-Butyl-3-(3-chloro-pyridin-4-ylmethyl)-7-(3,3-difluoro-pyrrolidin-1-yl)-3H-[1,2,3]triazolo[4,5-d]pyrimidine]	10.00	6.17		
CC(C)(C)c1nc(N2CC[C@](C)(O)C2)c2nnn(Cc3ccccc3C(F)(F)F)c2n1 [Example 222-a, (S)-1-(5-tert-butyl-3-(2-(trifluoromethyl)benzyl)-3H-[1,2,3]triazolo[4,5-d]pyrimidin-7-yl)-3-methylpyrrolidin-3-ol]	9.10	6.05		
Cn1nnnc1Cn1nnc2c(N3CC(F)(F)C(F)(F)C3)nc(C(C)(C)C)nc21 [Example 176, 5-tert-Butyl-3-(1-methyl-1H-tetrazol-5-ylmethyl)-7-(3,3,4,4-tetrafluoro-pyrrolidin-1-yl)-3H-[1,2,3]triazolo[4,5-d]pyrimidine]	9.30	5.70		
C[C@H](Oc1nc(C(C)(C)C)nc2c1nnn2Cc1ccccc1Cl)C(F)(F)F [Example 215, 5-tert-Butyl-3-(2-chloro-benzyl)-7-((S)-2,2,2-trifluoro-1-methyl-ethoxy)-3H-[1,2,3]triazolo[4,5-d]pyrimidine]	7.61	< 5.00		
CC(C)(C)c1nc(N2CCC(F)(F)C2)c2nnn(Cc3cccnc3)c2n1 [Example 74, 5-tert-Butyl-7-(3,3-difluoro-pyrrolidin-1-yl)-3-pyridin-3-ylmethyl-3H-[1,2,3]triazolo[4,5-d]pyrimidine]	10.00	7.25		
Cn1ncnc1Cn1nnc2c(N3CCC(F)(F)C3)nc(C(C)(C)C)nc21 [Example 132, 5-tert-Butyl-7-(3,3-difluoro-pyrrolidin-1-yl)-3-(2-methyl-2H-[1,2,4]triazol-3-ylmethyl)-3H-[1,2,3]triazolo[4,5-d]pyrimidine]	9.15	< 5.00		

SMILES	pEC50 (human CB2 receptors; [1])	pEC50 (human CB1 receptors; [2])	pEC50 (human CB1 receptors)	pEC50 (human CB2 receptors)
CC1(O)CN(c2nc(C(C)(C)C)nc3c2nnn3Cc2ccccc2Cl)C1 [Example 14, 1-[5-tert-Butyl-3-(2-chloro-benzyl)-3H-[1,2,3]triazolo[4,5-d]pyrimidin-7-yl]-3-methyl-azetidin-3-ol]	8.68	5.91		
CC(C)(C)c1nc(N2CCOC(CO)C2)c2nnn(Cc3ccccc3Cl)c2n1 (stereo not drawn) [Example 18, {4-[5-tert-Butyl-3-(2-chloro-benzyl)-3H-[1,2,3]triazolo[4,5-d]pyrimidin-7-yl]-morpholin-2-yl}-methanol]	7.33	< 5.00		
CC(C)(C)c1nc(N2CCC(F)(F)CC2)c2nnn(Cc3ccccc3Cl)c2n1 [Example 3, 5-tert-Butyl-3-(2-chloro-benzyl)-7-(4,4-difluoro-piperidin-1-yl)-3H-[1,2,3]triazolo[4,5-d]pyrimidine]	8.89	6.80		
CC(C)(C)c1nc(N2CC[C@H](O)C2)c2nnn(Cc3nnnn3C3CC3)c2n1 [Example 160, (S)-1-[5-tert-Butyl-3-(1-cyclopropyl-1H-tetrazol-5-ylmethyl)-3H-[1,2,3]triazolo[4,5-d]pyrimidin-7-yl]-pyrrolidin-3-ol]	9.15	< 5.00		
Cc1nonc1Cn1nnc2c(N3CC4(COC4)C3)nc(C(C)(C)C)nc21 [Example 179, 5-tert-Butyl-3-(4-methyl-furazan-3-ylmethyl)-7-(2-oxa-6-aza-spiro[3.3]hept-6-yl)-3H-[1,2,3]triazolo[4,5-d]pyrimidine]	8.70	< 5.00		
CC(C)(C)c1nc(N2CC3(COC3)C2)c2nnn(Cc3ncccc3Cl)c2n1 [Example 187, 5-tert-Butyl-3-(3-chloro-pyridin-2-ylmethyl)-7-(2-oxa-6-aza-spiro[3.3]hept-6-yl)-3H-[1,2,3]triazolo[4,5-d]pyrimidine]	9.10	6.92		
CC(C)(C)c1nc(N2CC[C@H](O)C2)c2nnn(Cc3ccccc3S(C)(=O)=O)c2n1 [Example 143, (S)-1-[5-tert-Butyl-3-(2-methanesulfonyl-benzyl)-3H-[1,2,3]triazolo[4,5-d]pyrimidin-7-yl]-pyrrolidin-3-ol]	10.00	< 5.00		
CCN(C(C)=O)C1CCN(c2nc(C(C)(C)C)nc3c2nnn3Cc2ccccc2Cl)C1 (stereo not drawn) [Example 196, N-{1-[5-tert-Butyl-3-(2-chloro-benzyl)-3H-[1,2,3]triazolo[4,5-d]pyrimidin-7-yl]-pyrrolidin-3-yl}-N-ethyl-acetamide]	6.93		< 5.00	
CC(C)(C)c1nc(OC2COC2)c2nnn(Cc3ccccc3Cl)c2n1 [Example 206, 5-tert-Butyl-3-(2-chloro-benzyl)-7-(oxetan-3-yloxy)-3H-[1,2,3]triazolo[4,5-d]pyrimidine]	7.95	< 5.00		
CC(C)(C)c1nc(N2CCC(O)C2)c2nnn(Cc3ccccc3Cl)c2n1 (stereo not drawn) [Example 218, 1-(5-tert-butyl-3-(2-chlorobenzyl)-3H-[1,2,3]triazolo[4,5-d]pyrimidin-7-yl)pyrrolidin-3-ol]	9.30	< 5.00		
CC1(C)CN(c2nc(C(C)(C)C)nc3c2nnn3Cc2ccccc2Cl)CCO1 [Example 23, 5-tert-Butyl-3-(2-chloro-benzyl)-7-(2,2-dimethyl-morpholin-4-yl)-3H-[1,2,3]triazolo[4,5-d]pyrimidine]	7.12	< 5.00		
CC(C)(C)c1nc(N2C[C@@H](O)C[C@@H]2CO)c2nnn(Cc3ccccc3Cl)c2n1 [Example 93, (3S,5R)-1-[5-tert-Butyl-3-(2-chloro-benzyl)-3H-[1,2,3]triazolo[4,5-d]pyrimidin-7-yl]-5-hydroxymethyl-pyrrolidin-3-ol]	8.35	< 5.00		
CC(C)(C)c1nc(N2CC(F)(F)C[C@@H]2CO)c2nnn(Cc3ccccc3Cl)c2n1 [Example 94, {(R)-1-[5-tert-Butyl-3-(2-chloro-benzyl)-3H-[1,2,3]triazolo[4,5-d]pyrimidin-7-yl]-4,4-difluoro-pyrrolidin-2-yl}-methanol]	9.00	< 5.00		
CC(C)(C)c1nc(N2CC2)c2nnn(Cc3ccccc3Cl)c2n1 [Example 41, 7-Aziridin-1-yl-5-tert-butyl-3-(2-chloro-benzyl)-3H-[1,2,3]triazolo[4,5-d]pyrimidine]			5.91	7.44
C[C@@H](c1ccccc1Cl)n1nnc2c(N3CCC(F)(F)C3)nc(C(C)(C)C)nc21 [Example 87]	9.00	6.57		
COC1CCN(c2nc(C(C)(C)C)nc3c2nnn3Cc2ccccc2Cl)C1 (stereo not drawn) [Example 28, 5-tert-Butyl-3-(2-chloro-benzyl)-7-(3-methoxy-pyrrolidin-1-yl)-3H-[1,2,3]triazolo[4,5-d]pyrimidine]	7.95	< 5.00		
